Measurements from patent publication US8846720B2, “Pest controlling composition and method for controlling pest” (Sumitomo Chemical Company, Limited, priority 2010, dated 2014).

System: gray mold fungus (Botrytis cinerea)
Test: Cucumber leaf disk preventive test against gray mold fungus
Assay type: in vivo
Settings: 15° C., six days
Method: True leaf of cucumber was punched out with cork borer to 13 mm in diameter to prepare a leaf disk. In 24 well microwell plate that was dispensed with 1 ml 0.8% water agar, the leaf disk was placed such that the upper side of the leaf was in an upward direction. […] Control where 20 micro liter ion-exchange water was spread was prepared (for non-treated group). After confirming that the spray solution was dried, conidium of gray mold fungus (Botrytis cinerea) was suspended into potato dextrose broth (DIFCO) in a density of about 10^5 conidia/mL and was then subjected to a spray inoculation. After leaving to stand the leaf disk in a growth chamber set up at 15° C. for six days, an onset area on each leaf was measured and a preventive value was then calculated by the following equation 1.
The same above operations were carried out using the present diamide compound (2c) or the present diamide compound (3) instead of the present diamide compound (2b), so as to obtain the respective preventive values. Preventive value(%)=100×(A−B)/A (Equation 1)
A: an onset area rate of plant belonging to non-treated group
B: an onset area rate of plant belonging to treated Group onset area rate=(onset area of the leaf disk)/(the total area of the leaf disk) […]

Which results are given for `CNC(=O)C(OC)c1ccccc1COc1cc(C)ccc1C` (centres unmarked) [the present amide compound]?
preventive value (%) (the present amide compound alone 1.0 ppm (dimethyl sulfoxide solution)): 46%; preventive value (%) (the present amide compound alone 2.5 ppm (dimethyl sulfoxide solution)): 56%
